Reference: patent US9120795B2, “Crystalline form of a β-lactamase inhibitor” (Cubist Pharmaceuticals, Inc., priority 2013, dated 2015)
Entries after “also recorded” stand apart in the source; their conditions may differ.

How the values were obtained:
[1] = Solid form stability at ambient conditions, XRPD; type: physicochemical
Method: X-Ray Powder Diffraction patterns were collected on a Bruker D8 diffractometer using Cu Kα radiation (40 kV, 40 mA), 0-20 goniometer, and divergence of V4 and receiving slits, a Ge monochromator and a Lynxeye detector. The instrument is performance checked using a certified Corundum standard (NIST 1976). The software used for data collection was Diffrac Plus XRD Commander v2.6.1 and the data were analysed and presented using Diffrac Plus EVA v13.0.0.2 or v15.0.0.0. Samples were run under ambient conditions as flat plate specimens using powder as received. The sample was gently packed into a cavity cut into polished, zero-background (510) silicon wafer. The sample was rotated in its own plane during analysis. The details of the data collection are: angular range: 2 to 42 °2θ; step size: 0.05 °2θ; collection time: 0.5 s/step. Amorphous material (˜60 mg) was generated as in Procedure 1. The amorphous material was suspended in different solvent systems (3 mL) at 50° C. A sample was withdrawn after 3 h and 24 h. The final product was filtered after 48 h and analysed by XRPD. The solids isolated were re-analysed again by XRPD after few days at ambient conditions (˜25° C. and ˜40% RH).

Eco.2711 (KPC, clinical) = assay: Standard BLI potentiation MIC assay; type: cell-based, Eschericia coli; details: read-out: MIC of β-lactam with BLI
Method: (§1) The experimental protocol was performed according to Clinical and Laboratory Standards Institute (CLSI) guidelines with modifications as described below (CLSI guidelines can be derived from the CLSI document M07-A9 published in January 2012: “Methods for Dilution Antimicrobial Susceptibility Tests for Bacteria That Grow Aerobically; Approved Standard-Ninth Edition”).
(§2) To prepare for MIC testing, frozen glycerol stocks of clinical isolates (Klebsiella pneumoniae, Eschericia coli, Enterobacter spp, Citrobacter spp, or Pseudomonas aeruginosa) were used to streak for isolated colonies on rich, non-selective, tryptic soy agar containing 5% sheep's blood (TSAB). Frozen glycerol stocks of laboratory engineered, isogenic E. coli strains, which contain cloned β-lactamase expressing plasmids were used to streak for isolated colonies on rich, selective LB agar supplemented with 25 μg/mL tetracycline to maintain the plasmid. All strains were incubated at 37° C. for 18-24 hrs.
(§3) On the day of testing, primary cultures were started by scraping off 5-10 colonies from the TSAB plates containing clinical strains or the tetracycline supplemented LB plates containing engineered strains. The clinical strain material was suspended in ˜5 mL of cation adjusted Mueller Hinton Broth (CAMHB) in 14 mL culture tubes. The engineered strain material was suspended in CAMHB (supplemented with 25 μg/mL tetracycline) in 14 mL culture tubes. All strains were incubated at 37° C. with aeration (200 rpm) for ˜2 hrs until the optical density at 600 nm (OD600) was ≧0.1.
(§4) The two compound components of the assay were each diluted in CAMHB and added to the 96-well broth microdilution assay plates. 50 μL of the β-lactam was added to each well of the assay plate in 2-fold dilutions with final concentrations ranging from 128 to 0.13 μg/mL. 25 μL of the BLI compound was added to all wells in the broth microdilution plates at a final concentration of 4 μg/mL. Inoculum cultures were prepared by standardizing the primary cultures to OD600=0.1 and then adding 20 μL of the adjusted primary culture per 1 mL CAMHB for clinical strains or CAMHB (supplemented with tetracycline at 100 μg/mL) for engineered strains, so that the final inoculum density was ˜10^5 colony forming units per milliliter. Diluted inoculum cultures were used to inoculate 25 μL per well in 96-well broth microdilution assay plates. The final volume of each well was 100 μL and contained a β-lactam at different concentrations, a BLlcompound at 4 μg/mL concentration, the bacterial culture at an OD600 of approximately 0.001 and when necessary tetracycline at 25 μg/mL.
(§5) Plates were incubated for 18-20 hours at 37° C. with aeration (200 rpm). Following incubation, growth was confirmed visually placing plates over a viewing apparatus (stand with a mirror underneath) and then OD600 was measured using a SpectraMax 340PC384 plate reader (Molecular Devices, Sunnyvale, Calif.). Growth was defined as turbidity that could be detected with the naked eye or achieving minimum OD600 of 0.1. MIC values were defined as the lowest concentration producing no visible turbidity.

[2] = test system: Eco.2902 (Aba-ADC-33, isogenic); assay: Standard BLI potentiation MIC assay; type: cell-based, Eschericia coli; details: read-out: MIC of β-lactam with BLI
Method: as §1, §2, §3, §4, §5

[3] = test system: Eco.2781 (KPC-2, TEM+, clinical); assay: Standard BLI potentiation MIC assay; type: cell-based, Eschericia coli; details: read-out: MIC of β-lactam with BLI
Method: as §1, §2, §3, §4, §5

[4] = test system: Eco.2845 (OXA-15, isogenic); assay: Standard BLI potentiation MIC assay; type: cell-based, Eschericia coli; details: read-out: MIC of β-lactam with BLI
Method: as §1, §2, §3, §4, §5

[5] = test system: Eco.2843 (DHA-1, isogenic); assay: Standard BLI potentiation MIC assay; type: cell-based, Eschericia coli; details: read-out: MIC of β-lactam with BLI
Method: as §1, §2, §3, §4, §5

[6] = test system: Eco.2491 (CMY-2, clinical); assay: Standard BLI potentiation MIC assay; type: cell-based, Eschericia coli; details: read-out: MIC of β-lactam with BLI
Method: as §1, §2, §3, §4, §5

[7] = test system: Eco.2840 (KPC-4, isogenic); assay: Standard BLI potentiation MIC assay; type: cell-based, Eschericia coli; details: read-out: MIC of β-lactam with BLI
Method: as §1, §2, §3, §4, §5

[8] = test system: Eco.2806 (KPC-2, isogenic); assay: Standard BLI potentiation MIC assay; type: cell-based, Eschericia coli; details: read-out: MIC of β-lactam with BLI
Method: as §1, §2, §3, §4, §5

[9] = Gravimetric vapour sorption (GVS/DVS), hygroscopicity; type: physicochemical; details: DVS, 25° C., 0-90% RH; sulfate
Method: Sorption isotherms were obtained using a SMS DVS Intrinsic moisture sorption analyser, controlled by DVS Intrinsic Control software v1.0.1.2 (or v 1.0.1.3). The sample temperature was maintained at 25° C. by the instrument controls. The humidity was controlled by mixing streams of dry and wet nitrogen, with a total flow rate of 200 ml/min The relative humidity was measured by a calibrated Rotronic probe (dynamic range of 1.0-100% RH), located near the sample. The weight change, (mass relaxation) of the sample as a function of % RH was constantly monitored by the microbalance (accuracy ±0.005 mg).
Typically 5-20 mg of sample was placed in a tared mesh stainless steel basket under ambient conditions. The sample was loaded and unloaded at 40% RH and 25° C. (typical room conditions). A moisture sorption isotherm was performed as outlined below (2 scans giving 1 complete cycle). The standard isotherm was performed at 25° C. at 10% RH intervals over a 0-90% RH range Data analysis was undertaken in Microsoft Excel using DVS Analysis Suite v6.2 (or 6.1 or 6.0).
The sample was recovered after completion of the isotherm and re-analysed by XRPD.

Ecl.569 (AmpC, clinical) = assay: Standard BLI potentiation MIC assay; type: cell-based, Enterobacter spp; details: Enterobacter, read-out: MIC of β-lactam with BLI
Method: as §1
as §2, with “hrs. […]” for “hrs.”
as §5, with “MIC values were defined as the lowest concentration producing no visible turbidity.” left out

Compound: O=C1N2C[C@@H](CC[C@H]2c2nnco2)N1OS(=O)(=O)[O-].[Na+] [Hydrate 1, sodium (2S,5R)-2-(1,3,4-oxadiazol-2-yl)-7-oxo-1,6-diazabicyclo[3.2.1]octan-6-yl sulfate]
- change of crystal form on storage ([1]; 25° C. at 40% relative humidity over 2 days (FIG. 2)): little to no change
- relative stability among the crystalline forms ([1]; ambient conditions (25° C. and 40% RH)): most stable crystalline form
- stability of the form (Summary of Forms, Description) ([1]; sulfate): Stable tri-hydrate
- MIC (Eco.2711 (KPC, clinical)): 0.25 to 0.5 µg/mL
- MIC [2]: 1 to 2 µg/mL
- MIC [3]: 0.25 to 0.5 µg/mL
- MIC [4]: 1 to 2 µg/mL
- MIC [5]: 0.25 to 0.5 µg/mL
- MIC [6]: 0.25 to 0.5 µg/mL
- MIC [7]: 1 to 2 µg/mL
- MIC [8]: 0.25 to 0.5 µg/mL
- hygroscopicity relative to the amorphous form [9]: significantly less hygroscopic than the amorphous form; also recorded: low hygroscopicity relative to amorphous
- MIC (Ecl.569 (AmpC, clinical)): 0.25 to 0.5 µg/mL
